Assays:
[1] = target: T1, Fatty-acid amide hydrolase 1 (Homo sapiens, UniProt O00519); test: Inhibition of Homo sapiens (human) recombinant fatty acid amide hydrolase assessed as inhibition of [3H]-AEA hydrolysis after 10 min by liquid scintillation counting
T1 sequence (O00519 whole entry): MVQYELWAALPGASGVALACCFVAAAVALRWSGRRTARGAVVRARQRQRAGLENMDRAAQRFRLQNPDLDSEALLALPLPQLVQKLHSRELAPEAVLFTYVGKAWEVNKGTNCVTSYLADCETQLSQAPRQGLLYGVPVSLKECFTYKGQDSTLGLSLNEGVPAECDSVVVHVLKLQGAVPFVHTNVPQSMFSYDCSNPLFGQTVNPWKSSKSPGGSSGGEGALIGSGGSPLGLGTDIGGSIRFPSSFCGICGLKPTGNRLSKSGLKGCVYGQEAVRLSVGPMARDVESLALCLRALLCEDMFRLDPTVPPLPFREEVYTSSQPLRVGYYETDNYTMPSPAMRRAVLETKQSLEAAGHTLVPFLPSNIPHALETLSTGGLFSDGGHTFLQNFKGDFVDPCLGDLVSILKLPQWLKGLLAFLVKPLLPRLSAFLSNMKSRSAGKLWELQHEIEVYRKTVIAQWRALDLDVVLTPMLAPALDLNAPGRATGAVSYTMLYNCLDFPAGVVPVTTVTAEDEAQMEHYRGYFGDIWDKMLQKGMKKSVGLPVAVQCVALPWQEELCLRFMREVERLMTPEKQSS

Monoglyceride lipase = target: T2, Monoglyceride lipase (Homo sapiens, UniProt Q99685); test: Inhibition of Homo sapiens (human) recombinant monoacylglycerol lipase assessed as inhibition of [3H]-2-oleolylglycerol hydrolysis after 10 min by liquid scintillation counting
T2 sequence (Q99685 whole entry): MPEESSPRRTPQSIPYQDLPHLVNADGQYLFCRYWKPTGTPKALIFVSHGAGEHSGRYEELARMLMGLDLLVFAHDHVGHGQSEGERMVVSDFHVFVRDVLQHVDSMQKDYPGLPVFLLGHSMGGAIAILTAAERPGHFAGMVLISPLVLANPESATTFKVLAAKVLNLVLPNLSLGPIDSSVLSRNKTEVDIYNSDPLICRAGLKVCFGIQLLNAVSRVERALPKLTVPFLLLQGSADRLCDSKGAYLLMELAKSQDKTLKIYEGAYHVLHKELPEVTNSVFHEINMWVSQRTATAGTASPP

| SMILES | IC50 [1] | IC50 (Monoglyceride lipase) |
| --- | --- | --- |
| S=C(Cc1ccccc1)N1CCOCC1 | > 1000 µM | > 1000 µM |
| COc1ccc(CC(=S)N2CCOCC2)cc1OC | > 1000 µM | > 1000 µM |
| Cc1ccc(CC(=S)N2CCOCC2)cc1 | 49 µM | 24 µM |
| COC(=O)c1ccc(C(=S)N2CCOCC2)cc1 | > 1000 µM | 30.9 µM |
| S=C(c1ccc(-c2ccccc2)cc1)N1CCOCC1 | 30.9 µM | 19.5 µM |
| S=C(Cc1ccc(Cl)cc1)N1CCOCC1 | 77.6 µM | 14.8 µM |
| S=C(Cc1ccc(-c2ccccc2)cc1)N1CCOCC1 | 30.9 µM | 5.75 µM |
| Cc1cccc(C(=S)N2CCCCC2)c1 | 61.7 µM | > 1000 µM |
| Oc1ccc(C(=S)NCCc2ccccc2)cc1O | 724 µM | 525 µM |
| COC(=O)c1ccc(C(=S)NCCc2ccccc2)cc1 | > 1000 µM | 26.3 µM |
| S=C(NCCc1ccccc1)c1ccc(Br)cc1 | > 1000 µM | 97.7 µM |
| S=C(NCCc1ccccc1)c1ccc(Cl)cc1 | 407 µM | 437 µM |
| S=C(NCCc1ccccc1)c1ccccc1Cl | > 1000 µM | 166 µM |
| S=C(NCCc1ccccc1)c1ccc(Cl)cc1Cl | > 1000 µM | 79.4 µM |
| S=C(NCCc1ccccc1)c1ccc(Cl)c(Cl)c1 | 53.7 µM | 75.9 µM |
| Fc1ccc(C(=S)NCCc2ccccc2)cc1 | > 1000 µM | > 1000 µM |
| S=C(Cc1ccc(-c2ccccc2)cc1)NCCc1ccccc1 | 724 µM | 537 µM |
| O=C(c1ccc(-c2ccccc2)cc1)N1CCOCC1 | > 1000 µM | > 1000 µM |
| Clc1ccccc1CN1CCOCC1 | > 1000 µM | > 1000 µM |

| SMILES | IC50 [1] | IC50 (Monoglyceride lipase) |
| --- | --- | --- |
| S=C(c1ccccc1Cl)N1CCOCC1 | > 1000 µM | 20 µM |
| S=C(c1ccc(C2CCCCC2)cc1)N1CCOCC1 | > 1000 µM | > 1000 µM |
| O=[N+]([O-])c1cccc(C(=S)N2CCOCC2)c1 | 245 µM | 9.55 µM |
| S=C(Cc1ccccc1Cl)N1CCOCC1 | > 1000 µM | 24.5 µM |
| S=C(c1ccccc1)N1CCCCC1 | > 1000 µM | > 1000 µM |
| Clc1ccc(CN2CCOCC2)cc1 [4-(4-CHLOROBENZYL)MORPHOLINE] | > 1000 µM | > 1000 µM |
| c1ccc(-c2ccc(CN3CCOCC3)cc2)cc1 [4-(BIPHENYL-4-YLMETHYL)MORPHOLINE] | > 1000 µM | > 1000 µM |
| S=C(c1ccc(Cl)cc1Cl)N1CCOCC1 [(2,4-DICHLOROPHENYL)(MORPHOLINO)METHANETHIONE] | > 1000 µM | > 1000 µM |
| O=C(c1ccccc1Cl)N1CCOCC1 [(2-CHLOROPHENYL)(MORPHOLINO)METHANONE] | > 1000 µM | > 1000 µM |
| Oc1ccccc1C(=S)N1CCOCC1 [(2-HYDROXYPHENYL)(MORPHOLINO)METHANETHIONE] | > 1000 µM | 60.3 µM |
| S=C(c1ccc(Cl)c(Cl)c1)N1CCOCC1 [(3,4-DICHLOROPHENYL)(MORPHOLINO)METHANETHIONE] | > 1000 µM | > 1000 µM |
| S=C(c1cccc(Cl)c1)N1CCOCC1 [(3-CHLOROPHENYL)(MORPHOLINO)METHANETHIONE] | > 1000 µM | > 1000 µM |
| CN(C)c1ccc(C(=S)N2CCOCC2)cc1 [(4-(DIMETHYLAMINO)PHENYL)(MORPHOLINO)METHANETHIONE] | > 1000 µM | > 1000 µM |
| S=C(c1ccc(Br)cc1)N1CCOCC1 [(4-BROMOPHENYL)(MORPHOLINO)METHANETHIONE] | > 1000 µM | 31.6 µM |
| S=C(c1ccc(Cl)cc1)N1CCOCC1 [(4-CHLOROPHENYL)(MORPHOLINO)METHANETHIONE] | 302 µM | 77.6 µM |
| O=C(c1ccc(Cl)cc1)N1CCOCC1 [(4-CHLOROPHENYL)(MORPHOLINO)METHANONE] | > 1000 µM | > 1000 µM |
| Oc1ccc(C(=S)N2CCOCC2)cc1 [(4-HYDROXYPHENYL)(MORPHOLINO)METHANETHIONE] | 562 µM | 204 µM |
| S=C(c1ccccc1)N1CCOCC1 [MORPHOLINO(PHENYL)METHANETHIONE] | > 1000 µM | > 1000 µM |
| S=C(NCCc1ccccc1)c1ccccc1 [N-PHENETHYLBENZOTHIOAMIDE] | > 1000 µM | > 1000 µM |

— ChEMBL document CHEMBL3045859, “Search for monoglyceride lipase inhibitors: synthesis and screening of arylthioamides derivatives” (Med Chem Res, 2009)
